In patent US9169241B2, “Quinolinyloxyphenylsulfonamides” (Max-Planck-Gesellschaft Zur Forderung der Wissenschaften …, priority 2009, dated 2015):

System: cells
Test: Boyden chamber migration assay (Table VI)
Format: cell-based
Conditions: Hs578T cells, 16 h migration
How it was run: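 20000 cells seeded in the upper compartment in 0% FCS plus 0.1% BSA and left 16 h to migrate through […] membrane toward 10% FCS medium below. Non-migrated cells swabbed off; cells on the filter underside fixed and counted.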

Structure (SMILES) | IC50 (Homo sapiens, Hs-578T, 16 h) [µM] | IC50 [µM]
COc1cc2c(Oc3ccc(NS(=O)(=O)c4ccccc4[N+](=O)[O-])cc3F)ccnc2cc1OCCCN1CCN(C)CC1 [Example 21, N-(3-Fluoro-4-{6-methoxy-7-[3-(4-methyl-piperazin-1-yl)-propoxy]-quinolin-4-yloxy}-phenyl)-2-nitro-benzenesulfonamide] | ≤ 5 | 
COc1cc2c(Oc3ccc(NS(=O)(=O)c4ccccc4OC(F)(F)F)cc3F)ccnc2cc1OCCCN1CCN(C)CC1 [Example 25, N-(3-Fluoro-4-{6-methoxy-7-[3-(4-methyl-piperazin-1-yl)-propoxy]-quinolin-4-yloxy}-phenyl)-2-trifluoromethoxy-benzenesulfonamide] | ≤ 5 | 
COc1cc2c(Oc3ccc(NS(=O)(=O)c4ccccc4Cl)cc3F)ccnc2cc1OCCCN1CCN(C)CC1 [Example 29, 2-Chloro-N-(3-fluoro-4-{6-methoxy-7-[3-(4-methyl-piperazin-1-yl)-propoxy]-quinolin-4-yloxy}-phenyl)-benzenesulfonamide] | ≤ 5 | 
COc1cc2c(Oc3ccc(NS(=O)(=O)c4c(Cl)cccc4Cl)cc3F)ccnc2cc1OCCCN1CCN(C)CC1 [Example 32, 2,6-Dichloro-N-(3-fluoro-4-{6-methoxy-7-[3-(4-methyl-piperazin-1-yl)-propoxy]-quinolin-4-yloxy}-phenyl)-benzenesulfonamide] | ≤ 5 | 
COc1cc2c(Oc3ccc(NS(=O)(=O)c4ccccc4OC)cc3F)ccnc2cc1OCCCN1CCN(C)CC1 [Example 33, N-(3-Fluoro-4-{6-methoxy-7-[3-(4-methyl-piperazin-1-yl)-propoxy]-quinolin-4-yloxy}-phenyl)-2-methoxy-benzenesulfonamide] | ≤ 5 | 
COc1cc2c(Oc3ccc(NS(=O)(=O)c4cc(Cl)cc(Cl)c4OC)cc3F)ccnc2cc1OCCCN1CCCCC1 [Example 34, 3,5-Dichloro-N-{3-fluoro-4-[6-methoxy-7-(3-piperidin-1-yl-propoxy)-quinolin-4-yloxy]-phenyl}-2-methoxy-benzenesulfonamide] | ≤ 5 | 
COc1cc2c(Oc3ccc(NS(=O)(=O)c4cc(Cl)cc(Cl)c4OC)cc3F)ccnc2cc1OCCCN1CCN(C)CC1 [Example 35, 3,5-Dichloro-N-(3-fluoro-4-{6-methoxy-7-[3-(4-methyl-piperazin-1-yl)-propoxy]-quinolin-4-yloxy}-phenyl)-2-methoxy-benzenesulfonamide] | ≤ 5 | 
COc1cc2c(Oc3ccc(NS(=O)(=O)c4cccc(C#N)c4)cc3F)ccnc2cc1OCCCN1CCCC(C)C1 (centres unmarked) [Example 41, 3-Cyano-N-(3-fluoro-4-{6-methoxy-7-[3-(3-methyl-piperidin-1-yl)-propoxy]-quinolin-4-yloxy}-phenyl)-benzenesulfonamide] | ≤ 5 | 
COc1cc2c(Oc3ccc(NS(=O)(=O)c4cc(C)ccc4F)cc3F)ccnc2cc1OCCCN1CCCC(C)C1 (centres unmarked) [Example 55] | ≤ 5 | 
COc1cc2c(Oc3ccc(NS(=O)(=O)c4ccc(C)c(F)c4)cc3F)ccnc2cc1OCCCN1CCCC(C)C1 (centres unmarked) [Example 56, 3-Fluoro-N-(3-fluoro-4-{6-methoxy-7-[3-(3-methyl-piperidin-1-yl)-propoxy]-quinolin-4-yloxy}-phenyl)-4-methyl-benzenesulfonamide] | ≤ 5 | 
COc1cc2c(Oc3ccc(NS(=O)(=O)c4ccc(F)c(Cl)c4)cc3F)ccnc2cc1OCCCN1CCCC(C)C1 (centres unmarked) [Example 57, 3-Chloro-4-fluoro-N-(3-fluoro-4-{6-methoxy-7-[3-(3-methyl-piperidin-1-yl)-propoxy]-quinolin-4-yloxy}-phenyl)-benzenesulfonamide] | 5 to 50 | 
COc1cc2c(Oc3ccc(NS(=O)(=O)c4cccc5ccccc45)cc3F)ccnc2cc1OCCCN1CCCC(C)C1 (centres unmarked) [Example 58, Naphthalene-1-sulfonic acid (3-fluoro-4-{6-methoxy-7-[3-(3-methyl-piperidin-1-yl)-propoxy]-quinolin-4-yloxy}-phenyl)-amide] | ≤ 5 | 
COc1cc2c(Oc3ccc(NS(=O)(=O)c4cccc(Oc5ccccc5)c4)cc3F)ccnc2cc1OCCCN1CCCC(C)C1 (centres unmarked) [Example 59, N-(3-Fluoro-4-{6-methoxy-7-[3-(3-methyl-piperidin-1-yl)-propoxy]-quinolin-4-yloxy}-phenyl)-3-phenoxy-benzenesulfonamide] | ≤ 5 | 
COc1cc2c(Oc3ccc(NS(=O)(=O)c4ccc(Cl)s4)cc3F)ccnc2cc1OCCCN1CCCC(C)C1 (centres unmarked) [Example 63, 5-Chloro-thiophene-2-sulfonic acid (3-fluoro-4-{6-methoxy-7-[3-(3-methyl-piperidin-1-yl)-propoxy]-quinolin-4-yloxy}-phenyl)-amide] | ≤ 5 | 
COc1cc2c(Oc3ccc(NS(=O)(=O)c4cccc(C)c4)cc3F)ccnc2cc1OCCCN1CCCC(C)C1 (centres unmarked) [Example 70, N-(3-Fluoro-4-{6-methoxy-7-[3-(3-methyl-piperidin-1-yl)-propoxy]-quinolin-4-yloxy}-phenyl)-3-methyl-benzenesulfonamide] | ≤ 5 | 
COc1cc2c(Oc3ccc(NS(=O)(=O)c4ccc(F)c(C#N)c4)cc3F)ccnc2cc1OCCCN1CCCC(C)C1 (centres unmarked) [Example 72, 3-Cyano-4-fluoro-N-(3-fluoro-4-{6-methoxy-7-[3-(3-methyl-piperidin-1-yl)-propoxy]-quinolin-4-yloxy}-phenyl)-benzenesulfonamide] | ≤ 5 | 
COc1cc2c(Oc3ccc(NS(=O)(=O)c4ccccc4F)cc3F)ccnc2cc1OCCN1CCOCC1 [Example 81, 2-Fluoro-N-{3-fluoro-4-[6-methoxy-7-(2-morpholin-4-yl-ethoxy)-quinolin-4-yloxy]-phenyl}-benzenesulfonamide] | ≤ 5 | 
COc1cc2c(Oc3ccc(NS(=O)(=O)c4c(F)cccc4F)cc3F)ccnc2cc1OCCN1CCOCC1 [Example 82, 2,6-Difluoro-N-{3-fluoro-4-[6-methoxy-7-(2-morpholin-4-yl-ethoxy)-quinolin-4-yloxy]-phenyl}-benzenesulfonamide] | 5 to 50 | 
COc1cc2c(Oc3c(Cl)cc(NS(=O)(=O)c4c(F)cccc4F)cc3Cl)ccnc2cc1OCCCN1CCN(C)CC1 [Example 88, N-(3,5-Dichloro-4-{6-methoxy-7-[3-(4-methyl-piperazin-1-yl)-propoxy]-quinolin-4-yloxy}-phenyl)-2,6-difluoro-benzenesulfonamide] | ≤ 5 | 
COc1cc2c(Oc3ccc(NS(=O)(=O)c4ccccc4C(F)(F)F)cc3F)ccnc2cc1OCC(=O)N(C)C [Example 93, 2-{4-[2-Fluoro-4-(2-trifluoromethyl-benzenesulfonylamino)-phenoxy]-6-methoxy-quinolin-7-yloxy}-N,N-dimethyl-acetamide] | 5 to 50 | ≤ 5
COc1cc2c(Oc3ccc(NS(=O)(=O)c4ccccc4C(F)(F)F)cc3F)ccnc2cc1OCCCNC1CCOCC1 [Example 95, N-(3-Fluoro-4-{6-methoxy-7-[3-(tetrahydro-pyran-4-ylamino)-propoxy]-quinolin-4-yloxy}-phenyl)-2-trifluoromethyl-benzenesulfonamide] | ≤ 5 | 
COc1cc2c(Oc3cccc(NS(=O)(=O)c4ccccc4C(F)(F)F)c3)ccnc2cc1OCCCN1CCN(C)CC1 [Example 102, N-(3-{6-Methoxy-7-[3-(4-methyl-piperazin-1-yl)-propoxy]-quinolin-4-yloxy}-phenyl)-2-trifluoromethyl-benzenesulfonamide] | ≤ 5 | 
